Data taken from patent US11667645B2, “Granzyme B directed imaging and therapy” (CytoSite Biopharma Inc., priority 2018, dated 2023).

Target: Granzyme B (human lymphocytes) (Homo sapiens (Human), UniProt P10144)
Assay: human Granzyme B biochemical assay
Details: Granzyme B (human lymphocytes) 5 nM, substrate Ac-IETD-AFC 200 μM, Cpd incubation with enzyme 30 mins, 22° C., read time 60 mins; read-out: IC50
Method in brief: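 Enzyme (10 nM working stock, assay buffer with 0.1% BSA) pre-incubated with compound for 30 min at 22 °C, then Ac-IETD-AFC (800 µM working stock) added for 60 min at 22 °C in the dark. Fluorescence read at Ex 400/Em 505 nm; 8-point 3.16-fold series (40 µM top working stock); IC50 from % inhibition versus standard-inhibitor and DMSO controls.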

Chain of Granzyme B (human lymphocytes) (P10144 21-247): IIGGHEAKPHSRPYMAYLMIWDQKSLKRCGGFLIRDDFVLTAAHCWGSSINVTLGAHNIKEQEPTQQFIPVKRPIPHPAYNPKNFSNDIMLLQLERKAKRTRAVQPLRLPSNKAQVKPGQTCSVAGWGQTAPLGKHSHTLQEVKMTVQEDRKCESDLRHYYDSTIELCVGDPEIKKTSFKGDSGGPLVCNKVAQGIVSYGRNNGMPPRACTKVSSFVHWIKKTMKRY

IC50	SMILES
> 5 µM	O=C(Cc1csc2ccccc12)N[C@@H](Cc1ccc(O)cc1)C(=O)N[C@H]1CCc2cccc3c2N(C1=O)[C@H](C(=O)NCc1c[nH]nn1)C3 [Compound C010, (2S,5S)-5-[(S)-2-(2-Benzo[b]thiophen-3-yl-acetylamino)-3-(4-hydroxy-phenyl)-propionylamino]-4-oxo-1,2,4,5,6,7-hexahydro-azepino[3,2,1-hi]indole-2-carboxylic acid (1H-[1,2,3]triazol-4-ylmethyl)-amide]
> 5 µM	CC[C@H](C)[C@H](NC(=O)COCCF)C(=O)N[C@H]1CCc2cccc3c2N(C1=O)[C@H](C(=O)NCc1ccncc1)C3 [Compound C123, (2S,5S)-5-{(2S,3S)-2-[2-(2-Fluoro-ethoxy)-acetylamino]-3-methyl-pentanoylamino}-4-oxo-1,2,4,5,6,7-hexahydro-azepino[3,2,1-hi]indole-2-carboxylic acid (pyridin-4-ylmethyl)-amide]
> 5 µM	CC(=O)N[C@@H](CCC(=O)O)C(=O)N[C@H]1CCc2cccc3c2N(C1=O)[C@H](C(=O)NCc1c[nH]nn1)C3 [Compound C030, (S)-4-Acetylamino-4-{(2S,5S)-4-oxo-2-[(1H-[1,2,3]triazol-4-ylmethyl)-carbamoyl]-1,2,4,5,6,7-hexahydro-azepino[3,2,1-hi]indol-5-ylcarbamoyl}-butyric acid]
> 5 µM	COC(=O)C[C@H](NC(=O)[C@@H]1Cc2cccc3c2N1C(=O)[C@@H](NC(=O)[C@@H](NC(C)=O)C(C)C)CC3)C(=O)OC [Compound C093, (S)-2-{[(2S,5S)-5-((S)-2-Acetylamino-3-methyl-butyrylamino)-4-oxo-1,2,4,5,6,7-hexahydro-azepino[3,2,1-hi]indole-2-carbonyl]-amino}-succinic acid dimethyl ester]
> 5 µM	COC(=O)[C@H](C)NC(=O)[C@@H]1Cc2cccc3c2N1C(=O)[C@@H](NC(=O)[C@@H](NC(C)=O)C(C)C)CC3 [Compound C090, (S)-2-{[(2S,5S)-5-((S)-2-Acetylamino-3-methyl-butyrylamino)-4-oxo-1,2,4,5,6,7-hexahydro-azepino[3,2,1-hi]indole-2-carbonyl]-amino}-propionic acid methyl ester]
> 5 µM	C[C@H](NC(=O)c1ccccc1)C(=O)N[C@H]1CCc2cccc3c2N(C1=O)[C@H](C(=O)NCc1c[nH]nn1)C3 [Compound C035, (2S,5S)-5-((S)-2-Benzoylamino-propionylamino)-4-oxo-1,2,4,5,6,7-hexahydro-azepino[3,2,1-hi]indole-2-carboxylic acid (1H-[1,2,3]triazol-4-ylmethyl)-amide]
0.001 to 0.3 µM	CC[C@H](C)[C@H](NC(=O)Cc1nc2ccccc2[nH]1)C(=O)N[C@H]1CCc2cccc3c2N(C1=O)[C@H](C(=O)NCc1c[nH]nn1)C3 [Compound C162, (2S,5S)-5-[(2S,3S)-2-(2-1H-Benzoimidazol-2-yl-acetylamino)-3-methyl-pentanoylamino]-4-oxo-1,2,4,5,6,7-hexahydro-azepino[3,2,1-hi]indole-2-carboxylic acid (1H-[1,2,3]triazol-4-ylmethyl)-amide]
> 5 µM	O=C(Cc1csc2ccccc12)N[C@@H](Cc1ccccc1)C(=O)N[C@H]1CCc2cccc3c2N(C1=O)[C@H](C(=O)NCc1c[nH]nn1)C3 [Compound C004, (2S,5S)-5-[(S)-2-(2-Benzo[b]thiophen-3-yl-acetylamino)-3-phenyl-propionylamino]-4-oxo-1,2,4,5,6,7-hexahydro-azepino[3,2,1-hi]indole-2-carboxylic acid (1H-[1,2,3]triazol-4-ylmethyl)-amide]
0.301 to 1 µM	CC(C)(C)[C@H](NC(=O)c1ccccc1)C(=O)N[C@H]1CCc2cccc3c2N(C1=O)[C@H](C(=O)NCc1c[nH]nn1)C3 [Compound C046, (2S,5S)-5-((S)-2-Benzoylamino-3,3-dimethyl-butyrylamino)-4-oxo-1,2,4,5,6,7-hexahydro-azepino[3,2,1-hi]indole-2-carboxylic acid (1H-[1,2,3]triazol-4-ylmethyl)-amide]
> 5 µM	CC(=O)N[C@@H](CO)C(=O)N[C@H]1CCc2cccc3c2N(C1=O)[C@H](C(=O)NCc1c[nH]nn1)C3 [Compound C029, (2S,5S)-5-((S)-2-Acetylamino-3-hydroxy-propionylamino)-4-oxo-1,2,4,5,6,7-hexahydro-azepino[3,2,1-hi]indole-2-carboxylic acid (1H-[1,2,3]triazol-4-ylmethyl)-amide]
0.001 to 0.3 µM	COc1ccccc1C(=O)N[C@H](C(=O)N[C@H]1CCc2cccc3c2N(C1=O)[C@H](C(=O)NCc1c[nH]nn1)C3)C(C)C [Compound C063, (2S,5S)-5-[(S)-2-(2-Methoxy-benzoylamino)-3-methyl-butyrylamino]-4-oxo-1,2,4,5,6,7-hexahydro-azepino[3,2,1-hi]indole-2-carboxylic acid (1H-[1,2,3]triazol-4-ylmethyl)-amide]
> 5 µM	CCC(C)[C@H](NC(=O)COCCF)C(=O)N[C@H]1CCc2cccc3c2N(C1=O)[C@H](C(=O)NCc1ccoc1)C3 (stereo in doubt) [Compound C108, (2S,5S)-5-{(2S,3R)-2-[2-(2-Fluoro-ethoxy)-acetylamino]-3-methyl-pentanoylamino}-4-oxo-1,2,4,5,6,7-hexahydro-azepino[3,2,1-hi]indole-2-carboxylic acid (furan-3-ylmethyl)-amide]
> 5 µM	CC[C@H](C)[C@H](NC(=O)COCCF)C(=O)N[C@H]1CCc2cccc3c2N(C1=O)[C@H](C(=O)NCc1cnoc1)C3 [Compound C117, (2S,5S)-5-{(2S,3S)-2-[2-(2-Fluoro-ethoxy)-acetylamino]-3-methyl-pentanoylamino}-4-oxo-1,2,4,5,6,7-hexahydro-azepino[3,2,1-hi]indole-2-carboxylic acid (isoxazol-4-ylmethyl)-amide]
> 5 µM	CC(=O)N[C@H](C(=O)N[C@H]1CCc2cccc3c2N(C1=O)[C@H](C(=O)N[C@H](C)C(=O)O)C3)C(C)C [Compound C087, (R)-2-{[(2S,5S)-5-((S)-2-Acetylamino-3-methyl-butyrylamino)-4-oxo-1,2,4,5,6,7-hexahydro-azepino[3,2,1-hi]indole-2-carbonyl]-amino}-propionicacid]
> 5 µM	CC(=O)N[C@H](C(=O)N[C@H]1CCc2cccc3c2N(C1=O)[C@H](C(=O)N[C@@H](CCC(=O)O)C(=O)O)C3)C(C)C [Compound C094, (S)-2-{[(2S,5S)-5-((S)-2-Acetylamino-3-methyl-butyrylamino)-4-oxo-1,2,4,5,6,7-hexahydro-azepino[3,2,1-hi]indole-2-carbonyl]-amino}-pentanedioic acid]
> 5 µM	O=C(O)CC[C@H](NC(=O)Cc1csc2ccccc12)C(=O)N[C@H]1CCc2cccc3c2N(C1=O)[C@H](C(=O)NCc1c[nH]nn1)C3 [Compound C008, (S)-4-(2-Benzo[b]thiophen-3-yl-acetylamino)-4-{(2S,5S)-4-oxo-2-[(1H-[1,2,3]triazol-4-ylmethyl)-carbamoyl]-1,2,4,5,6,7-hexahydro-azepino[3,2,1-hi]indol-5-ylcarbamoyl}butyric acid]
> 5 µM	C[C@H](NC(=O)Cc1ccccc1)C(=O)N[C@H]1CCc2cccc3c2N(C1=O)[C@H](C(=O)NCc1c[nH]nn1)C3 [Compound C013, (2S,5S)-4-Oxo-5-((S)-2-phenylacetylamino-propionylamino)-1,2,4,5,6,7-hexahydro-azepino[3,2,1-hi]indole-2-carboxylic acid (1H-[1,2,3]triazol-4-ylmethyl)-amide]
0.001 to 0.3 µM	CC[C@H](C)[C@H](NC(=O)c1cccc(OC)c1)C(=O)N[C@H]1CCc2cccc3c2N(C1=O)[C@H](C(=O)NCc1c[nH]nn1)C3 [Compound C061, (2S,5S)-5-[(2S,3S)-2-(3-Methoxy-benzoylamino)-3-methyl-pentanoylamino]-4-oxo-1,2,4,5,6,7-hexahydro-azepino[3,2,1-hi]indole-2-carboxylic acid(1H-[1,2,3]triazol-4-ylmethyl)-amide]
> 5 µM	O=C(O)CC[C@H](NC(=O)c1ccccc1)C(=O)N[C@H]1CCc2cccc3c2N(C1=O)[C@H](C(=O)NCc1c[nH]nn1)C3 [Compound C041, (S)-4-Benzoylamino-4-{(2S,5S)-4-oxo-2-[(1H-[1,2,3]triazol-4-ylmethyl)-carbamoyl]-1,2,4,5,6,7-hexahydro-azepino[3,2,1-hi]indol-5-ylcarbamoyl}-butyric acid]
> 5 µM	CC(C)(NC(=O)Cc1csc2ccccc12)C(=O)N[C@H]1CCc2cccc3c2N(C1=O)[C@H](C(=O)NCc1c[nH]nn1)C3 [Compound C044, (2S,5S)-5-[2-(2-Benzo[b]thiophen-3-yl-acetylamino)-2-methyl-propionylamino]-4-oxo-1,2,4,5,6,7-hexahydro-azepino[3,2,1-hi]indole-2-carboxylic acid (1H-[1,2,3]triazol-4-ylmethyl)-amide]
0.001 to 0.3 µM	CCC(CC)[C@H](NC(C)=O)C(=O)N[C@H]1CCc2cccc3c2N(C1=O)[C@H](C(=O)NCc1c[nH]nn1)C3 [Compound C074, (2S,5S)-5-((S)-2-Acetylamino-3-ethyl-pentanoylamino)-4-oxo-1,2,4,5,6,7-hexahydro-azepino[3,2,1-hi]indole-2-carboxylic acid (1H-[1,2,3]triazol-4-ylmethyl)-amide]
> 5 µM	CC[C@H](C)[C@H](NC(=O)COCCF)C(=O)N[C@H]1CCc2cccc3c2N(C1=O)[C@H](C(=O)NCc1cnco1)C3 [Compound C111, (2S,5S)-5-{(2S,3S)-2-[2-(2-Fluoro-ethoxy)-acetylamino]-3-methyl-pentanoylamino}-4-oxo-1,2,4,5,6,7-hexahydro-azepino[3,2,1-hi]indole-2-carboxylic acid (oxazol-5-ylmethyl)-amide]
